Key:
Format in all cases: functional, cell-based
A549 = test: Cytotoxicity against human A549 cells by MTT assay
BGC-823 = test: Cytotoxicity against human BGC823 cells by MTT assay
MCF7 = test: Cytotoxicity against human MCF7 cells by MTT assay
Bel-7402 = test: Cytotoxicity against human Bel7402 cells by MTT assay
HCT-8 = test: Cytotoxicity against human HCT8 cells by MTT assay

Measured: IC50

C=C1CC[C@]2(O)[C@H]([C@H](C(C)(C)O)CC[C@H]2C)[C@H]1O
> 10 µg/mL: all assays above

CC(C)[C@@H]1CC[C@@H](C)[C@]2(O)CC[C@@](C)(O)[C@@H](O)[C@@H]12
> 10 µg/mL: all assays above

CC1=CC[C@@]2(O)[C@H](C)CC[C@@H](C(C)C)[C@@H]2C1=O
> 10 µg/mL: all assays above

CC(C)[C@@H]1CC[C@@H](C)[C@]2(O)CCC(C=O)=C[C@@H]12
> 10 µg/mL: all assays above

CC1=CC[C@]2(O)[C@@H]([C@@H]1O)[C@H](C(C)C)CC[C@H]2C
> 10 µg/mL: all assays above

CC1=CC[C@]2(O)[C@@H]([C@H]1O)[C@H](C(C)C)CC[C@H]2C
> 10 µg/mL: all assays above

C=C1CC[C@]2(O)[C@@H]([C@@H]1O)[C@H](C(C)C)CC[C@H]2C
> 10 µg/mL: all assays above

From ChEMBL document CHEMBL1148914, “Cadinane sesquiterpenes from the brown alga Dictyopteris divaricata” (J Nat Prod, 2004)
